Patent US7495104B2, “Quinoline or quinazoline derivatives inhibiting auto-phosphorylation of fibroblast growth factor receptors” (Kirin Beer Kabushiki Kaisha, priority 2001, dated 2009)
Structures can show the parent of a compound that is named as a salt.

Columns and labels:
[1] = test system: Human gastric cancer cells (OCUM-2MD3); assay: Tumor growth inhibitory activity against human gastric cancer cells (OCUM-2MD3) in nude mice (Pharmacological Test Example 3); type: in vivo; details: Mus musculus, 240 h, dose per day 10 mg × 2, oral, read-out: TGIR (tumor growth inhibition rate)
Method: Human gastric cancer cells (OCUM-2MD3) (kindly provided by Dr. Kosei Hirakawa, Osaka City University) were transplanted into nude mice. […] The test compound suspended in 0.5% methylcellulose was orally administered every day twice a day for 5 days (except for the first day on which the suspension was administered once a day).
Only 0.5% methylcellulose was administered to the control group in the manner as in the test groups. The tumor growth inhibition rate (TGIR) was calculated as follows: The tumor growth inhibition rate (TGIR)=(1−TX/CX)×100 wherein CX represents the volume of tumor at day X for the control group when the tumor volume at the day of the start of the administration was presumed to be 1; and TX represents the volume of tumor for test compound administration groups.
Tumor growth inhibitory activity was measured in the same manner as in Pharmacological Test Example 2, except that oral administration was carried out once a day or twice a day (except for the first day on which the suspension was administered once a day).

Bek = Bek (Homo sapiens, UniProt P21802); assay: Inhibitory activity against Bek-autophosphorylation using ELISA method in OCUM-2MD3 cells; type: cell-based; details: 1 hr with compound, read-out: IC50 (concentration necessary for inhibiting 50% of Bek-phosphorylation)
Sequence of Bek (P21802 431-767 limits assumed): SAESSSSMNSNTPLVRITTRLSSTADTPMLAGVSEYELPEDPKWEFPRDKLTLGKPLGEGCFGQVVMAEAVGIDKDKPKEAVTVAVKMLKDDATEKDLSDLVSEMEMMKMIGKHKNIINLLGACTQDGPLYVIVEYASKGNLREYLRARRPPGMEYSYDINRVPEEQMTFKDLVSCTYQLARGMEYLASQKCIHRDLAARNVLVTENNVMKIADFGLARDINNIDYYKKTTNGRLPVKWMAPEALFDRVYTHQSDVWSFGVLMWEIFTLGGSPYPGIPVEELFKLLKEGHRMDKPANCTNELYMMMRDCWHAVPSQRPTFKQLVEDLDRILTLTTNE
Method in brief: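 OCUM-2MD3 human scirrhous gastric cancer cells in 0.1% FCS were exposed to compound for 1 hr at 37° C, then lysed. Phospho-tyrosine proteins were captured with anti-phosphotyrosine antibody, probed with anti-Bek antibody and peroxidase read-out (A450). Positive control (1000 nM) set 0%, untreated 100%; IC50 from multi-level dilutions.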

Compound | inhibition in vivo at 10 mg [1] | IC50 (Bek)
COc1cc2c(Oc3ccc(NC(=O)NCCC(C)(C)C)c(F)c3)ccnc2cc1OCCCN1CCOCC1 [Compound 88, 1-(3,3-Dimethyl-butyl)-3-{2-fluoro-4-[6-methoxy-7-(3-morpholin-4-yl-propoxy)-quinolin-4-yloxy]-phenyl}-urea hydrochloride] | 35% | 10.8 nM
COc1cc2c(Oc3ccc(Nc4ccc(C(C)(C)C)cc4)cc3)ccnc2cc1OCC[N+]1([O-])CCOCC1 [Compound 83, 4-{2-[(4-{4-[4-(Tert-butyl)anilino]phenoxy}-6-methoxy-7-quinolyl)-oxy]ethyl}-1,4-oxazinan-4-ium-4-oleate] | 34% | 
COc1cc2c(Oc3ccc(NC(=O)NCCC(C)(C)C)cc3)ccnc2cc1OCCCN1CCC(CO)CC1 [Compound 94, 1-(3,3-Dimethyl-butyl)-3-(4-{7-[3-(4-hydroxymethyl-piperidin-1-yl)-propoxy]-6-methoxy-quinolin-4-yloxy}-phenyl)-urea] | 40% | 
COc1cc2nccc(Oc3ccc(Nc4ccc(C(C)(C)C)cc4)cc3)c2cc1OCC(O)CN1CCOCC1 (stereo not shown) [Compound 86, 1-[(4-{4-[4-(Tert-butyl)anilino]phenoxy}-7-methoxy-6-quinolyl)-oxy]-3-morpholino-2-propanol] | 30% | 
COc1cc2c(Oc3ccc(Nc4ccc(C(C)(C)C)cc4)cc3)ccnc2cc1OCCNCCO [Compound 85, 2-({2-[(4-{4-[4-(Tert-butyl)anilino]phenoxy}-6-methoxy-7-quinolyl)oxy]ethyl}amino)-1-ethanol] | 43% | 
COc1cc2c(Oc3ccc(NC(=O)NCCC(C)(C)C)cc3)ccnc2cc1OCC(O)CN1CCC(N2CCCCC2)CC1 (stereo not shown) [Compound 261, 1-{4-[7-(3-[1,4′]Bipiperidineyl-1′-yl-2-hydroxy-propoxy)-6-methoxy-quinolin-4-yloxy]-phenyl}-3-(3,3-dimethyl-butyl)-urea] |  | < 10 nM
COc1cc2c(Oc3ccc(Nc4ccc(C(C)(C)C)cc4)cc3Cl)ccnc2cc1OCCN1CCOCC1 [Compound 84, N-[4-(Tert-butyl)phenyl]-N-(3-chloro-4-{[6-methoxy-7-(2-morpholinoethoxy)-4-quinolyl]oxy}phenyl)amine] | 33% | 
COc1cc2c(Oc3ccc(Nc4ccc(C(C)(C)C)cc4)cc3)ccnc2cc1OCCN(C)CCO [Compound 348, 2-[(2-{4-[4-(4-Tert-butyl-phenylamino)-phenoxy]-6-methoxy-quinolin-7-yloxy}-ethyl)-methyl-amino]-ethanol hydrochloride] |  | 186 nM
COc1cc2c(Oc3ccc(NC(=O)NCCC(C)(C)C)cc3)ccnc2cc1OCCCCl [Compound 151, 1-{4-[7-(3-Chloro-propoxy)-6-methoxy-quinolin-4-yloxy]-phenyl}-3-(3,3-dimethyl-butyl)-urea] |  | 221 nM
COc1cc2c(Oc3ccc(NC(=O)NCCC(C)(C)C)cc3)ccnc2cc1OCCCN1CCOCC1 [Compound 155, 1-(3,3-Dimethyl-butyl)-3-{4-[6-methoxy-7-(3-morpholin-4-yl-propoxy)-quinolin-4-yloxy]-phenyl}-urea hydrochloride] |  | 28.7 nM
COc1cc2c(Oc3ccc(Nc4ccc(C(C)(C)C)cc4)c(Cl)c3)ccnc2cc1OCCN1CCC(CO)CC1 [Compound 279, [1-(2-{4-[4-(4-Tert-butyl-phenylamino)-3-chloro-phenoxy]-6-methoxy-quinolin-7-yloxy}-ethyl)-piperidin-4-yl]-methanol] |  | 370 nM
COCCNCCCOc1cc2nccc(Oc3ccc(NC(=O)NCCC(C)(C)C)cc3)c2cc1OC [Compound 271, 1-(3,3-Dimethyl-butyl)-3-(4-{6-methoxy-7-[3-(2-methoxy-ethylamino)-propoxy]-quinolin-4-yloxy}-phenyl)-urea] |  | 33.2 nM
